Measurements published in US10202385B2, “Use of substituted 2,3-dihydroimidazo[1,2-C]quinazolines” (BAYER INTELLECTUAL PROPERTY GMBH, priority 2011, dated 2019).
Counter-ions that a name gives are not always drawn.

Tests used:
Assay type in all cases: cell-based
T47D cells [1] = assay: Apoptosis induction (PARP cleavage, Caspase-Glo 3/7) in T47D cells
Description: (§1) Tumor cells were seeded in 384-well plates at a concentration of 1000-2500 cells/well/25 μL depending on cell lines. After overnight incubation, cells were treated with compounds (5 μL). Then, Caspase 3/7 activities were determined at 24 to 48 hours post-treatment using Caspase-Glo3/7 assay kits (Promega Cat # G8212).
The combination effects of PI3K inhibitors and other agent were evaluated using combination index isobologram analysis (Chou et al. Pharmacology Reviews 2006). The efficacy parameters were the median effect in a 72-hour cell proliferation assay and the 24- or 48-hour Caspase 3/7 activity assay described above. Briefly, cells were plated in 384-well plate with 25 μl medium. […] The corresponding component doses of D1 and D2 at the E(I)C50/E(I)C90 were calculated and used for plotting isobolograms. The multiple drug effect was analyzed as described by Chou et al. (Pharmacology Reviews 2006) and the combination index was calculated using the formula: Combination Index=[D1x]/D1′+[D2x]/D2′ where D1x and D2x refer to the Drug 1 and Drug 2 concentration at EC50/IC50 or EC90/IC90, respectively, in combination; and D1′ and D2′ refer to the EC50/IC50 or EC90/IC90 values of D1 and D2, respectively, as single agents. […]

MDA-MB-468 tumor cells [2] = assay: Tumor cell proliferation assay in MDA-MB-468 cells; conditions: PTEN null, EGFR high, Bcl-2 negative MDA-MB-468
Description: In accordance with the invention, the compound were assessed in a cell-based assay that measures the capacity of the compounds to inhibit tumor cell proliferation following a 72-hour drug exposure. Cell viability was conducted by Invitrogen (breast Oncopanel, Invitrogen, USA), or was determined using CellTiter-Glo® Luminescent Cell Viability Assay (Promega) as follows. Cells were plated at 300-5000 cells/well depending on the cell lines or microtiter plates (96- or 384-well) in 100 μL growth medium in 96-well and 20 μL growth medium in 384-well microtiterplate. For each cell line assayed, cells were plated onto a separate plate for determination of luminescence at t=0 hour and t=72 hour time points. Following overnight incubation at 37° C., luminescence values for the t=0 samples were determined. […] Luminescence values for the t=72 hour samples were determined. For data analysis, briefly, t=0 values were subtracted from those determined for the t=72 hour time points, for both the treated and untreated samples. Percent differences in luminescence between drug-treated and control values were used to determine the percent inhibition of growth.
The combination effects of PI3K inhibitors and other agent were evaluated using combination index isobologram analysis (Chou et al. Pharmacology Reviews 2006). […]

breast tumor cell lines = assay: 72-hour tumor cell proliferation assay, molecular profiling in 24 breast tumor cell lines
Description: (§2) In accordance with the invention, the compound were assessed in a cell-based assay that measures the capacity of the compounds to inhibit tumor cell proliferation following a 72-hour drug exposure. Cell viability was conducted by Invitrogen (breast Oncopanel, Invitrogen, USA), or was determined using CellTiter-Glo® Luminescent Cell Viability Assay (Promega) as follows. Cells were plated at 300-5000 cells/well depending on the cell lines or microtiter plates (96- or 384-well) in 100 μL growth medium in 96-well and 20 μL growth medium in 384-well microtiterplate. For each cell line assayed, cells were plated onto a separate plate for determination of luminescence at t=0 hour and t=72 hour time points. Following overnight incubation at 37° C., luminescence values for the t=0 samples were determined. Dose plates for the t=72 hour time points were treated with compounds diluted into growth medium. Cells were then incubated for 72 hours at 37° C. Luminescence values for the t=72 hour samples were determined. For data analysis, briefly, t=0 values were subtracted from those determined for the t=72 hour time points, for both the treated and untreated samples. Percent differences in luminescence between drug-treated and control values were used to determine the percent inhibition of growth.
Using a set of breast cancer cell lines representing differential receptor expression status and genetic alterations of PIK3CA and PTEN, the anti-proliferative and apoptotic effects of Compound A were investigated.

T47D cells [3] = assay: 72-hour tumor cell proliferation assay in T47D cells; conditions: T47D (PIK3CA mut)
Description: as §2, with “growth. […]” for “growth.”

[4] = test system: breast tumor cells (BT-20, BT-474, KPL-4); assay: Apoptosis induction (PARP cleavage, Caspase 3/7) in breast tumor cells
Description: as §1

MDA-MB-468 tumor cells [5] = assay: Apoptosis induction (PARP cleavage) in MDA-MB-468 cells; conditions: PTEN null, EGFR high, Bcl-2 negative MDA-MB-468
Description: as §1
The cellular expression of the mTORC2 component Rictor was assessed by western blot analysis (A). Induction of PARP cleavage by compound A treatment in combination with inhibition of mTORC1 or mTORC2 (B). shControl and shRictor MDA-MB468 cells were treated with indicated agents for 48 hours, and cleavage of PARP was analyzed. GAPDH was used as an internal protein control.

| IC50 (breast tumor cell lines; breast tumor cells with HER2 expression, n=8 cell lines, proliferation) | IC50 (breast tumor cell lines; breast tumor cells with PIK3CA mutation, n=7 cell lines, proliferation) | IC50 (breast tumor cell lines; wild type PIK3CA and HER2 negative breast cancer cells, n=12, proliferation) | anti-proliferative activity IC50 (T47D cells [3]) | SMILES | apoptosis induction (T47D cells [1]; T47D (PIK3CA mut), high level of Bcl-2) | inhibition of proliferation (MDA-MB-468 tumor cells [2]) | apoptosis induction ([4]; PIK3CA mutant and or HER2 positive breast tumor cells (such as BT20, BT474)) | inducing apoptosis ([4]; breast cancer cells expressing HER2 and/or PIK3CA mutation in the absence of Bcl-2 (conclusion)) | apoptosis after exposure ([4]; tumor cells that lack Bcl-2 expression (KPL-4, BT-474, BT-20)) | induction of apoptosis (MDA-MB-468 tumor cells [5]) | sensitization to apoptosis in combination with Compound A (T47D cells [1]; T47D cells, ABT-737 combined with Compound A) |
| --- | --- | --- | --- | --- | --- | --- | --- | --- | --- | --- | --- |
| 19 nM | 17 nM | 773 nM | single-digit | COc1c(OCCCN2CCOCC2)ccc2c1N=C(NC(=O)c1cnc(N)nc1)N1CCN=C21 [Compound A, 2-amino-N-[7-methoxy-8-(3-morpholin-4-ylpropoxy)-2,3-dihydroimidazo[1,2-c]quinazolin-5-yl]pyrimidine-5-carboxamide dihydrochloride] | resistant to apoptosis | insensitive | strong activity | extremely effective | immediately underwent apoptosis | resistant |  |
|  |  |  |  | CN(C)CC[C@H](CSc1ccccc1)Nc1ccc(S(=O)(=O)NC(=O)c2ccc(N3CCN(Cc4ccccc4-c4ccc(Cl)cc4)CC3)cc2)cc1[N+](=O)[O-] [ABT-737, reference compound] |  |  |  |  |  |  | sensitized T47D cells to apoptosis |
